Series [1] is described as follows: Cytotoxicity against mouse spleen lymphocytes assessed as cell viability at 1 mg/mL after 48 hrs by MTT assay relative to control. Type of series: tissue-based, Lymphocyte. The following applies: read-out: Activity. On the technique in general: Formazan colour is commonly taken as a measure of viable cells.
Series [2] has as its system HCT-116. The series is described as follows: Growth inhibition of human HCT116 cells at 1 mg/mL after 48 hrs by MTT assay. In kind it is functional. The following applies: HCT-116, 48 h, read-out: GI.

`Cc1nn(-c2ccccc2)c2c1C(c1ccc3c(c1)OCO3)SCC(=O)N2` (configuration not stated): the viability at 48 h, 1 mg/mL in series [1] is 66.9%. The inhibition of growth at 1000 µg/mL in series [2] was found to be 51.3%.

Consider `COc1ccc(C2SCC(=O)Nc3c2c(C)nn3-c2ccccc2)cc1` (configuration not stated), for which the viability at 48 h, 1 mg/mL in series [1] was 78.8%. In addition, the inhibition of growth at 1000 µg/mL in series [2] is 57.8%.

In the case of `CCn1c2ccccc2c2c3c(ccc21)NC(=O)CSC3c1ccc(C)cc1` (configuration not stated), the viability at 48 h, 1 mg/mL in series [1] worked out at 93.2%. In series [2], the inhibition of growth at 1000 µg/mL is 53.4%.

For `CCn1c2ccccc2c2c3c(ccc21)NC(=O)CSC3c1ccc(OC)cc1` (configuration not stated), the viability at 48 h, 1 mg/mL in series [1] worked out at 51.4%. Also, the inhibition of growth at 1000 µg/mL in series [2] is 58.9%.

Consider `CCn1c2ccccc2c2c3c(ccc21)NC(=O)CSC3c1ccc2c(c1)OCO2` (configuration not stated), for which the viability at 48 h, 1 mg/mL in series [1] worked out at 158%. Further, the inhibition of growth at 1000 µg/mL in series [2] is 51.6%.

As to `CCn1c2ccccc2c2c3c(ccc21)NC(=O)CSC3c1ccc(OC)c(OC)c1` (configuration not stated), the viability at 48 h, 1 mg/mL in series [1] stood at 101%. Further, the inhibition of growth at 1000 µg/mL in series [2] was 56.2%.

For the compound `CCn1c2ccccc2c2c3c(ccc21)NC(=O)CSC3c1cccs1` (configuration not stated), in series [1], the viability at 48 h, 1 mg/mL was 45%. The inhibition of growth at 1000 µg/mL in series [2] worked out at 60.3%.

For `CCn1c2ccccc2c2c3c(ccc21)NC(=O)CSC3c1ccc(Br)cc1` (configuration not stated), in series [1], the viability at 48 h, 1 mg/mL was 136%. In addition, in series [2], the inhibition of growth at 1000 µg/mL is 62%.

In the case of `COc1ccc(C2SCC(=O)Nc3ccc4[nH]ncc4c32)cc1` (configuration not stated), the viability at 48 h, 1 mg/mL in series [1] stood at 44.8%. Also, the inhibition of growth at 1000 µg/mL in series [2] is 61.8%.

In the case of `Cc1ccc(C2SCC(=O)Nc3ccc4[nH]ncc4c32)cc1` (configuration not stated), the viability at 48 h, 1 mg/mL in series [1] was 20.5%. In series [2], the inhibition of growth at 1000 µg/mL worked out at 66.8%.

On to `O=C1CSC(c2ccc3c(c2)OCO3)c2c(ccc3[nH]ccc23)N1` (configuration not stated), for which, in series [1], the viability at 48 h, 1 mg/mL turned out to be 155%. The inhibition of growth at 1000 µg/mL in series [2] stood at 55.9%.

For `COc1cc(C2SCC(=O)Nc3ccc4[nH]ncc4c32)cc(OC)c1OC` (configuration not stated), the viability at 48 h, 1 mg/mL in series [1] came to 166%. Also, the inhibition of growth at 1000 µg/mL in series [2] is 58.2%.

As for `O=C1CSC(c2ccc(Br)cc2)c2c(ccc3[nH]ncc23)N1` (configuration not stated), the viability at 48 h, 1 mg/mL in series [1] was 42.6%. Besides, the inhibition of growth at 1000 µg/mL in series [2] stood at 63.4%.

For `O=C1CSC(c2ccc(Cl)cc2)c2c(ccc3[nH]ncc23)N1` (configuration not stated), the viability at 48 h, 1 mg/mL in series [1] worked out at 67.9%. In addition, the inhibition of growth at 1000 µg/mL in series [2] is 60.9%.

As to `Cc1ccc(C2SCC(=O)Nc3c2c(C)nn3-c2ccccc2)cc1` (configuration not stated), the viability at 48 h, 1 mg/mL in series [1] stood at 25.7%. Further, the inhibition of growth at 1000 µg/mL in series [2] was 58.4%.

`Cc1nn(-c2ccccc2)c2c1C(c1ccc(Cl)cc1)SCC(=O)N2` (configuration not stated): the viability at 48 h, 1 mg/mL in series [1] was 82.3%. In addition, the inhibition of growth at 1000 µg/mL in series [2] is 50.2%.

Regarding `Cc1nn(-c2ccccc2)c2c1C(c1ccccc1Cl)SCC(=O)N2` (configuration not stated), the viability at 48 h, 1 mg/mL in series [1] amounted to 68.7%. Moreover, the inhibition of growth at 1000 µg/mL in series [2] came to 55.3%.

In the case of `Cc1nn(-c2ccccc2)c2c1C(c1ccc(Cl)cc1Cl)SCC(=O)N2` (configuration not stated), in series [1], the viability at 48 h, 1 mg/mL came to 156%. The inhibition of growth at 1000 µg/mL in series [2] was 53.3%.

For `Cc1ccc(C2SCC(=O)Nc3onc(C)c32)cc1` (configuration not stated), the viability at 48 h, 1 mg/mL in series [1] is 103%. The inhibition of growth at 1000 µg/mL in series [2] was 64.7%.

With `Cc1noc2c1C(c1ccc3c(c1)OCO3)SCC(=O)N2` (configuration not stated), the viability at 48 h, 1 mg/mL in series [1] is 87.2%. In addition, the inhibition of growth at 1000 µg/mL in series [2] is 50.4%.

For the compound `COc1ccc(C2SCC(=O)Nc3onc(C)c32)cc1OC` (configuration not stated), the viability at 48 h, 1 mg/mL in series [1] was 165%. Besides, in series [2], the inhibition of growth at 1000 µg/mL came out at 54.6%.

As to `Cc1noc2c1C(c1cccs1)SCC(=O)N2` (configuration not stated), the viability at 48 h, 1 mg/mL in series [1] worked out at 160%. Further, in series [2], the inhibition of growth at 1000 µg/mL is 62.6%.

As to `Cc1nn(-c2ccccc2)c2c1C(c1cccc([N+](=O)[O-])c1)SCC(=O)N2` (configuration not stated), the viability at 48 h, 1 mg/mL in series [1] came to 154%. In addition, the inhibition of growth at 1000 µg/mL in series [2] worked out at 54.3%.

For `COc1ccc(C2SCC(=O)Nc3onc(C)c32)cc1` (configuration not stated), in series [1], the viability at 48 h, 1 mg/mL is 165%. Besides, the inhibition of growth at 1000 µg/mL in series [2] worked out at 60.3%.

As to `Cc1noc2c1C(c1ccccc1Cl)SCC(=O)N2` (configuration not stated), the viability at 48 h, 1 mg/mL in series [1] worked out at 170%. Further, the inhibition of growth at 1000 µg/mL in series [2] turned out to be 54.6%.

Turning to `Cc1noc2c1C(c1ccc(Br)cc1)SCC(=O)N2` (configuration not stated), the viability at 48 h, 1 mg/mL in series [1] came out at 157%. The inhibition of growth at 1000 µg/mL in series [2] was 63%.

Source of the values: ChEMBL document CHEMBL1933012, “Design and diversity-oriented synthesis of novel 1,4-thiazepan-3-ones fused with bioactive heterocyclic skeletons and evaluation of their antioxidant and cytotoxic activities” (Bioorg Med Chem Lett, 2012).
